In patent publication US5273982A, “Acetic acid derivatives” (Hoffmann-La Roche Inc., priority 1990, dated 1993) one finds IC50 data, which are given here for 17 molecules.

In the experiment the target is T1, fibrinogen receptor, glycoprotein IIb/IIIa (Homo sapiens, UniProt P05106+P08514).
T1 construct: obtained from Triton X-100 extracts of human blood platelets; from tissue; host or cells: human blood platelets (Triton X-100 extract)
T1 sequence (P08514 32-887 limits assumed): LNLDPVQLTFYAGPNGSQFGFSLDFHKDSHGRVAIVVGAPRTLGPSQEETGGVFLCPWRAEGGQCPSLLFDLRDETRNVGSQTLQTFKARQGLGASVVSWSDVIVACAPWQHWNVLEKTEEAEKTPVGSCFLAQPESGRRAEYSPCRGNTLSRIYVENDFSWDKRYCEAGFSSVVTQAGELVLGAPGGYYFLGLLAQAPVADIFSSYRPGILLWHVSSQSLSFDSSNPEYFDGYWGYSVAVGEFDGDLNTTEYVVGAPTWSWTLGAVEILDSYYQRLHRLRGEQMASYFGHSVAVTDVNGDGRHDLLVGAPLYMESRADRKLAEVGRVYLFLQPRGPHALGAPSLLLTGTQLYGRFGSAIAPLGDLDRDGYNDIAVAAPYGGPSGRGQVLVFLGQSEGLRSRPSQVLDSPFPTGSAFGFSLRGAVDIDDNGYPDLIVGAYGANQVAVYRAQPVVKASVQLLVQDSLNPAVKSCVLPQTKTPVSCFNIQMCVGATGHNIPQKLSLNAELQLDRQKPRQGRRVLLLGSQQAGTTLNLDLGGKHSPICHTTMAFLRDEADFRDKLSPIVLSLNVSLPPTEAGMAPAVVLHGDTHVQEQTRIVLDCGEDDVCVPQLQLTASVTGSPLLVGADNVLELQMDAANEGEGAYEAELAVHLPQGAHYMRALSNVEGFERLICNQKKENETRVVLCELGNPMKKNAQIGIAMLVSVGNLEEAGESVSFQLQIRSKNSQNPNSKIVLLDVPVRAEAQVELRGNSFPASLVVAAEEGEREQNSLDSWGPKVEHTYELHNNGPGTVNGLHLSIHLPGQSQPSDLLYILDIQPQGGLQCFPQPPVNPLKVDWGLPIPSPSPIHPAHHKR
T1 sequence (P08514 891-1039 partner limits assumed): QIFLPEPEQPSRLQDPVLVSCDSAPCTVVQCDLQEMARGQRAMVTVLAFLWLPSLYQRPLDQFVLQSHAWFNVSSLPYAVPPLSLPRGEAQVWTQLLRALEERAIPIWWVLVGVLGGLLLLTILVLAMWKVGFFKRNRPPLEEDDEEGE
T1 sequence (P05106 27-788): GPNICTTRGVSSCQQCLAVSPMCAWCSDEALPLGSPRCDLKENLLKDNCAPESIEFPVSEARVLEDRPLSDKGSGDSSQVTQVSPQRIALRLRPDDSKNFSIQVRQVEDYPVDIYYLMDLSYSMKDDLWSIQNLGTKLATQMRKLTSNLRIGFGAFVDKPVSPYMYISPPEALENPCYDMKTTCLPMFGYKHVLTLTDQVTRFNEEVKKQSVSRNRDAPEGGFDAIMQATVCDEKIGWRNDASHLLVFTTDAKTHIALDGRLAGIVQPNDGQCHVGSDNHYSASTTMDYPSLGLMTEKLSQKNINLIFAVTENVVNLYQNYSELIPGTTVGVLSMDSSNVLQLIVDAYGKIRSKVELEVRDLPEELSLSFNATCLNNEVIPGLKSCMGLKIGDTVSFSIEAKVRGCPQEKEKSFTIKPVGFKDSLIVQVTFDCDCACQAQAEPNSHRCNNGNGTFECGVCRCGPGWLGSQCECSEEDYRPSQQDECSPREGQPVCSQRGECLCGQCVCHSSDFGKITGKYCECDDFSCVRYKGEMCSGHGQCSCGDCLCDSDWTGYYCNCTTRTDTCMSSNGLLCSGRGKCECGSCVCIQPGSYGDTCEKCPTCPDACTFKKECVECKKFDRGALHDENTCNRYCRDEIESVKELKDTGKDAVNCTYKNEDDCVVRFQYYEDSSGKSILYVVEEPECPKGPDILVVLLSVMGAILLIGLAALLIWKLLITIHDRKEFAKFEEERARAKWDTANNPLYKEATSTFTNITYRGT
Kind of experiment: Inhibition of fibrinogen binding to immobilised fibrinogen receptor glycoprotein IIb/IIIa (ELISA). As to conditions: glycoprotein IIb/IIIa from human blood platelets, bound to microtiter plates, read-out: IC50 (concentration required to inhibit the binding of fibrinogen to the immobilised receptor by 50%). The source says:
The inhibition of fibrinogen […] on the fibrinogen receptor, glycoprotein IIb/IIIa, can be detected as follows:
Glycoprotein IIb/IIIa is obtained from Triton X-100 extracts of human blood platelets and purified by lectin affinity chromatography (Analytical Biochemistry 151, 1985, 169-177) and chromatography on an Arg-Gly-Asp-Ser affinity column (Science 231, 1986, 1559-62). The receptor protein thus obtained is bound to microtiter plates. The specific binding of fibrinogen to the immobilized receptor is determined with the aid of an ELISA system ("enzyme-linked immunosorbent assay"). The IC50 values below correspond to the concentration of the test substance which is required in order to inhibit the binding of fibrinogen to the immobilised receptor by 50%: […]
Take `N=C(N)c1ccc(C(=O)NCCCC(=O)NCCC(=O)O)cc1` [Example 8, N-[4-(p-amidinobenzamido)butyryl]-β-alanine]: the IC50 was found to be 100 nM.

Turning to `N=C(N)c1ccc(CC(=O)NCCC(=O)N[C@@H](CC(=O)O)C(=O)N[C@@H](Cc2ccccc2)C(=O)O)cc1` [Example 3, N-[N-[N-(p-amidinophenylacetyl)-β-alanyl]-L-α-aspartyl]-3-phenyl-L-alanine], the IC50 came out at 45 nM.

Turning to `N=C(N)N1CCC(C(=O)NCCC(=O)N[C@@H](CC(=O)O)C(=O)N[C@@H](Cc2ccccc2)C(=O)O)CC1` [Example 2, N-[N-[N-(1-amidino-4-piperidinylcarbonyl)-β-alanyl]-L-α-aspartyl]-3-phenyl-L-alanine], the IC50 is 130 nM.

As for `CCOC(=O)[C@H](CO)NC(=O)[C@H](CC(=O)O)NC(=O)CCNC(=O)c1ccc(C(=N)N)cc1` [Example 28, N-[N-[N-(p-amidinobenzoyl)-β-alanyl]-L-α-aspartyl]-L-serine ethyl ester], the IC50 came to 5 nM.

For `N=C(N)c1ccc(C(=O)N2CCCC(C(=O)NCCC(=O)O)C2)cc1` (racemic) [Example 7, rac-N-[[1-(p-amidinobenzoyl)-3-piperi-dinyl]carbonyl]-β-alanine], the IC50 was determined as 27 nM.

Regarding `CC(C)C[C@H](NC(=O)[C@H](CC(=O)O)NC(=O)CCNC(=O)c1ccc(C(=N)N)cc1)C(=O)OC(C)C` [Example 18, N-[N-[N-(p-amidino-benzoyl)-β-alanyl]-L-α-aspartyl]-L-leucine isopropyl ester], the IC50 came out at 10 nM.

With `N=C(N)c1ccc(C(=O)NC(CC(=O)NCCC(=O)O)c2ccccc2)cc1` (racemic) [Example 10, N-[(DL)-N-(p-amidinobenzoyl)-3-phenyl-β-alanyl]-β-alanine], the IC50 is 22 nM.

As to `N=C(N)c1ccc(C(=O)NCCC(=O)N[C@@H](CC(=O)O)C(=O)N[C@@H](Cc2ccccc2)C(=O)O)cc1` [Example 1, N-[N-[N-(p-amidinobenzoyl)-β-alanyl]-L-α-aspartyl]-3-phenyl-L-alanine], the IC50 amounted to 0.3 nM. On to `N=C(N)c1ccc(C(=O)NCCCCC(=O)N[C@@H](CC(=O)O)C(=O)N[C@@H](Cc2ccccc2)C(=O)O)cc1` [Example 11, N-[N-[5-(p-amidinobenzamido)valeryl]-L-α-aspartyl]-3-phenyl-L-alanine], for which the IC50 was 2.5 nM.

For the molecule `N=C(N)c1ccc(NC(=O)CCCC(=O)N[C@@H](CC(=O)O)C(=O)N[C@@H](Cc2ccccc2)C(=O)O)cc1` [Example 4, N-[N-[4-(p-amidinophenylcarbamoyl)butyryl]-L-α-aspartyl]-3-phenyl-L-alanine], the IC50 turned out to be 35 nM. The result for `N=C(N)c1ccc(CCNC(=O)CC(=O)N[C@@H](CC(=O)O)C(=O)N[C@@H](Cc2ccccc2)C(=O)O)cc1` [Example 5, N-[N-[(p-amidinophenethylcarbamoyl)acetyl]-L-α-aspartyl]-3-phenyl-L-alanine] reads 10 nM. In the case of `CC(C)[C@H](NC(=O)[C@H](CC(=O)O)NC(=O)CCCNC(=O)c1ccc(C(=N)N)cc1)C(=O)O` [Example 6, N-[N-[4-(p-amidinobenzamido)butyryl]-L-α-aspartyl]-L-valine], the IC50 was 10 nM.

For the molecule `CC(C)[C@H](NC(=O)[C@H](CC(=O)O)NC(=O)CCNC(=O)c1ccc(C(=N)N)cc1)C(=O)O` [Example 38, N-[N-[N-(p-amidinobenzoyl)-β-alanyl]-L-α-aspartyl]-L-valine], the IC50 was found to be 3.6 nM. Consider `N=C(N)c1ccc(C(=O)N2CC[C@@H](C(=O)N[C@@H](CC(=O)O)C(=O)N[C@@H](Cc3ccccc3)C(=O)O)C2)cc1` [Example 31, N-[N-[[(R)-1-(p-amidinobenzoyl)-3-pyrrolidinyl]carbonyl]-L-α-aspartyl]-3-phenyl-L-alanine], for which the IC50 stood at 12.8 nM.

With `N=C(N)c1ccc(C(=O)NCCC(=O)N[C@@H](CC(=O)O)C(=O)N[C@@H](Cc2ccc(O)cc2)C(=O)O)cc1` [Example 39], the IC50 was found to be 1.2 nM.

For the molecule `N=C(N)c1ccc(C(=O)NCCC(=O)NCCC(=O)O)cc1` [Example 9, N-[N-(p-amidino-benzoyl)-β-alanyl]-β-alanine], the IC50 amounted to 5 nM. To `CC(C)COC(=O)[C@H](CC(=O)O)NC(=O)CCCCNC(=O)c1ccc(C(=N)N)cc1` [Example 25, isobutyl N-[5-(p-amidinobenzamido)valeryl]-L-α-aspartate] belongs 6.7 nM.
